The term inhibition denotes the change of the read-out against control, counted positive when it falls.

The first experiment concerns the target T1, HIV-1 integrase (Human immunodeficiency virus type 1 group M subtype B, UniProt P04585).
T1 construct: Purified recombinant HIV-1 integrase was incubated with immobilized precleaved substrate DNA
The experiment can be described thus: In vitro activity against integrase, Method A (immobilized precleaved substrate DNA, biotinylated target DNA, 96 well plate). It counts as biochemical. The note with it: Assay Method A, read-out: Percent inhibition of HIV Integrase at 70 uM. On the procedure: (§1) The in vitro activities, against integrase, of compounds of the present invention were measured by one of the following three methods.
In Method A, the in vitro activity against integrase was measured in a manner which was similar to previously disclosed methods (cf. Hazuda, D. J.; Felock, P.; Witmer, M.; Wolfe, A.; Stillmock, K.; Grobler, J. A.; Espeseth, A.; Gabryelski, L.; Schleif, W.; Blau, C.; Miller, M. D. Science, 2000, 287, 646) Purified recombinant HIV-1 integrase was incubated with immobilized precleaved substrate DNA in a 96 well plate for 20 min at 37° C. After the integration complex was formed, compounds at desired concentrations were added to the wells followed by a 10 min incubation at 37° C. Biotinyted Target DNA was then added and the reaction was carried out for an additional 1 hour at 37° C. Wells were then washed thoroughly to remove any free DNA and integration activity was measured by using a commercial kit to quantitate the amount of biotinyted target DNA integrated into the substrate.
Consider `COc1ccc(CN(Cc2ccc(F)cc2)C(=O)/C=C(\O)C(=O)O)c(OC)c1` [Compound 35, 3-[(2,4-Dimethoxy-benzyl)-(4-fluoro-benzyl)-carbamoyl]-2-hydroxy-acrylic acid], for which the inhibition at 70 µM is 95.5%.

In the case of `CN(C(=O)/C=C(\O)C(=O)O)C(c1ccc(F)cc1)c1ccc(F)cc1` [Compound 5, 3-{[Bis-(4-fluoro-phenyl)-methyl]-methyl-carbamoyl}-2-hydroxy-acrylic acid], the inhibition at 70 µM amounted to 65%.

The next experiment deals with T2, HIV Integrase (Human immunodeficiency virus type 1 group M subtype B, UniProt P04585).
T2 construct: 0.26 ng of recombinant integrase was then incubated with the beads
The experiment can be described thus: In vitro activity against integrase, Method C (electroluminescence, ECL assay). In kind it is biochemical. Conditions: read-out: Percent inhibition of HIV Integrase at 70 uM. The protocol: as §1
(§2) In Method B, the in vitro activity against integrase was measured by binding, for each reaction, 5 pmole of biotin labeled substrate DNA to 100 ug of Streptavidin coated PVT SPA beads (Amersham Pharmacia Biotech). 0.26 ng of recombinant integrase was then incubated with the beads for 90 min at 37° C. Unbound enzyme was removed by washing the complex followed by addition of inhibitors and 0.1 fmol of P33 labeled target DNA. Reaction was stopped by adding EDTA to a final concentration of 10 mM. Samples were counted in TopCountNXT (Packard) and the CPM was used as a measure of integration. Reaction condition was as described in A. Engelman and R. Craigie, J. Virol. 69, 5908-5911 (1995). The sequences of substrate and target DNA were described in Nucleic Acid Research 22, 1121-1122 (1994).
Method C (Electroluminesence Assay):
The ECL assay of Method C is essentially the same as the SPA assay of Method B, except that 0.5 μg of Streptavidin coated magnetic beads and 0.5 pmol Ru labeled target DNA were used for each reaction instead of SPA beads and P33 labeled DNA. The samples were read in a M8 analyzer (IGEN International, Inc).
With `CCCNC(=O)/C(O)=C/C(=O)N(Cc1ccc(F)cc1)Cc1ccc(F)cc1` [Compound 144, 2-Hydroxy-but-2-enedioic acid 4-[bis-(4-fluoro-benzyl)-amide] 1-propylamide], the inhibition at 70 µM amounted to 83%. For `O=C(O)/C(O)=C/C(=O)N(CCc1ccncc1)Cc1ccc(F)cc1` [Compound 86, 3-[(4-Fluoro-benzyl)-(2-pyridin-4-yl-ethyl)-carbamoyl]-2-hydroxy-acrylic acid], the inhibition at 70 µM was 97%.

A further experiment deals with T2, HIV Integrase. Briefly: In vitro activity against integrase, Method B (SPA assay). In kind it is biochemical. Conditions: read-out: Percent inhibition of HIV Integrase at 70 uM. The protocol:
as §1, §2
Consider `CN(Cc1cccc(Cl)c1)C(=O)/C=C(\O)C(=O)O` [Compound 62, 3-[(3-Chloro-benzyl)-methyl-carbamoyl]-2-hydroxy-acrylic acid], for which the inhibition at 70 µM is 99%. Regarding `Cc1ccc(CNC(=O)/C=C(\O)C(=O)O)cc1F` [Compound 91, 3-(3-Fluoro-4-methyl-benzylcarbamoyl)-2-hydroxy-acrylic acid], the inhibition at 70 µM worked out at 99%. With `O=C(CCCCCNC(=O)/C(O)=C/C(=O)N(Cc1ccc(F)cc1)Cc1ccc(F)cc1)NS(=O)(=O)c1ccccc1` [Compound 146, 2-Hydroxy-but-2-enedioic acid 1-[(6-benzenesulfonylamino-6-oxo-hexyl)-amide] 4-[bis-(4-fluoro-benzyl)-amide]], the inhibition at 70 µM turned out to be 98%. Regarding `CN(CCC(c1ccc(F)cc1)c1ccc(F)cc1)C(=O)/C=C(\O)C(=O)O` [Compound 80, 3-{[3,3-Bis-(4-fluoro-phenyl)-propyl]-methyl-carbamoyl}-2-hydroxy-acrylic acid], the inhibition at 70 µM stood at 90%. On to `CN(Cc1ccccc1Cc1ccccc1)C(=O)/C=C(\O)C(=O)O` [Compound 84, 3-[(2-Benzyl-benzyl)-methyl-carbamoyl]-2-hydroxy-acrylic acid], for which the inhibition at 70 µM amounted to 88%. Same read-out and setting: then `Cc1cc(CN(C)C(=O)/C=C(\O)C(=O)O)ccc1F` [Compound 61, 3-[(4-Fluoro-3-methyl-benzyl)-methyl-carbamoyl]-2-hydroxy-acrylic acid], with 99%; and `Cc1ccc(CN(C(=O)/C=C(\O)C(=O)O)c2ccc(F)cc2)cc1` [Compound 73, 3-[(4-Fluoro-phenyl)-(4-methyl-benzyl)-carbamoyl]-2-hydroxy-acrylic acid], with 99%; and `CN(Cc1ccc2ccccc2c1)C(=O)/C=C(\O)C(=O)O` [Compound 54, 2-Hydroxy-3-(methyl-naphthalen-2-ylmethyl-carbamoyl)-acrylic acid], with 99%. Consider `O=C(O)/C(O)=C/C(=O)N(Cc1ccc2ccccc2c1)c1ccc(Cl)cc1` [Compound 55, 3-[(4-Chloro-phenyl)-naphthalen-2-ylmethyl-carbamoyl]-2-hydroxy-acrylic acid], for which the inhibition at 70 µM was 99%. As for `Cc1ccc(CN(C(=O)/C=C(\O)C(=O)O)c2ccc(Cl)cc2)cc1` [Compound 71, 3-[(4-Chloro-phenyl)-(4-methyl-benzyl)-carbamoyl]-2-hydroxy-acrylic acid], the inhibition at 70 µM was 99%.

Consider `CN(Cc1ccc(F)c(Cl)c1)C(=O)/C=C(\O)C(=O)O` [Compound 58, 3-[(3-Chloro-4-fluoro-benzyl)-methyl-carbamoyl]-2-hydroxy-acrylic acid], for which the inhibition at 70 µM stood at 99%. Same read-out and setting: then `O=C(O)/C(O)=C/C(=O)N(Cc1ccc(Cl)cc1)Cc1ccc(Cl)cc1` [Compound 57, 3-[Bis-(4-chloro-benzyl)-carbamoyl]-2-hydroxy-acrylic acid], with 99%. For the compound `O=C(O)/C(O)=C/C(=O)N(Cc1ccc(F)cc1)c1ccc(Cl)cc1` [Compound 70, 3-[(4-Chloro-phenyl)-(4-fluoro-benzyl)-carbamoyl]-2-hydroxy-acrylic acid], the inhibition at 70 µM was found to be 92%.

For `O=C(O)/C(O)=C/C(=O)N(Cc1ccc(F)cc1)Cc1ccc2ccccc2c1` [Compound 53, 3-[(4-Fluoro-benzyl)-naphthalen-2-ylmethyl-carbamoyl]-2-hydroxy-acrylic acid], the inhibition at 70 µM came to 99%. With `CN(Cc1ccccc1Cc1ccc(F)cc1)C(=O)/C=C(\O)C(=O)O` [Compound 81, 3-{[2-(4-Fluoro-benzyl)-benzyl]-methyl-carbamoyl}-2-hydroxy-acrylic acid], the inhibition at 70 µM was determined as 95%. Turning to `CN(Cc1cccc(Oc2ccccc2)c1)C(=O)/C=C(\O)C(=O)O` [Compound 64, 2-Hydroxy-3-[methyl-(3-phenoxy-benzyl)-carbamoyl]-acrylic acid], the inhibition at 70 µM amounted to 95%. As to `O=C(O)/C(O)=C/C(=O)N(Cc1ccccc1)Cc1ccccc1` [Compound 14, 3-Dibenzylcarbamoyl-2-hydroxy-acrylic acid], the inhibition at 70 µM amounted to 94.5%. Still for that read-out and setting: then `CN(Cc1ccc(F)c(F)c1)C(=O)/C=C(\O)C(=O)O` [Compound 59, 3-[(3,4-Difluoro-benzyl)-methyl-carbamoyl]-2-hydroxy-acrylic acid], with 98%; and `CN(Cc1ccc(F)cc1)C(=O)/C=C(\O)C(=O)O` [Compound 16, 3-[(4-Fluoro-benzyl)-methyl-carbamoyl]-2-hydroxy-acrylic acid], with 97%.

Consider `O=C(/C=C(\O)C(=O)O)NC(c1ccc(Cl)cc1)c1ccc(Cl)cc1` [Compound 92, 3-{[Bis-(4-chloro-phenyl)-methyl]-carbamoyl}-2-hydroxy-acrylic acid], for which the inhibition at 70 µM was found to be 94%. On to `O=C(O)/C(O)=C/C(=O)N(Cc1ccc(F)cc1)Cc1ccco1` [Compound 74, 3-[(4-Fluoro-benzyl)-furan-2-ylmethyl-carbamoyl]-2-hydroxy-acrylic acid], for which the inhibition at 70 µM turned out to be 98%. For `O=C(O)/C(O)=C/C(=O)N(CCCc1ccccc1)c1ccc(Cl)cc1` [Compound 56, 3-[(4-Chloro-phenyl)-(3-phenyl-propyl)-carbamoyl]-2-hydroxy-acrylic acid], the inhibition at 70 µM amounted to 88%. For the compound `COc1cc(CN(C)C(=O)/C=C(\O)C(=O)O)ccc1F` [Compound 60, 3-[(4-Fluoro-3-methoxy-benzyl)-methyl-carbamoyl]-2-hydroxy-acrylic acid], the inhibition at 70 µM was 99%. Same read-out and setting: then `CN(Cc1cccc(-c2ccc(F)cc2)c1)C(=O)/C=C(\O)C(=O)O` [Compound 63, 3-[(4′-Fluoro-biphenyl-3-ylmethyl)-methyl-carbamoyl]-2-hydroxy-acrylic acid], with 98%. Turning to `COc1ccc(CN(Cc2ccc(F)cc2)C(=O)/C=C(\O)C(=O)O)cc1Cl` [Compound 76, 3-[(3-Chloro-4-methoxy-benzyl)-(4-fluoro-benzyl)-carbamoyl]-2-hydroxy-acrylic acid], the inhibition at 70 µM was determined as 99%.

On to `O=C(O)/C(O)=C/C(=O)N(Cc1ccc(F)cc1)c1ccc(F)cc1` [Compound 72, 3-[(4-Fluoro-benzyl)-(4-fluoro-phenyl)-carbamoyl]-2-hydroxy-acrylic acid], for which the inhibition at 70 µM was 99%.

Source of the values: patent US6803378B2, “HIV integrase inhibitors” (Bristol-Myers Squibb Company, priority 2000, dated 2004).
